According to publication PMC12645083, “Microwave‐Enhanced Synthesis of 2‐Styrylquinoline‐4‐Carboxamides With Promising Anti‐Lymphoma Activity” (Archiv Der Pharmazie, 2025):
pIC50: −log10 of the molar value. Read-outs that look alike come from different tables or passages of the source.

Columns and labels:
[1] = tested on: panel of five lymphoma cell lines (VL51, TOLEDO, SU-DHL-18, SU-DHL-1, KM-H2); experiment: Antiproliferative activity, range over the panel of five lymphoma cell lines; format: cell-based, human; conditions: range or statement over the lymphoma cell lines, 72 h; for pIC50: Homo sapiens
Excerpt: Based on these interesting results on hematological malignancies‐derived cell lines, styrylquinolines 4i, 4n, 4s and 4ah were further tested for their antiproliferative activity on a panel of five lymphoma cell lines (VL51, splenic B‐cell lymphoma; TOLEDO, diffuse large B‐cell lymphoma, non‐Hodgkin lymphoma; SU‐DHL‐18, lymph node lymphoma; SU‐DHL‐1, histiocytic large cell lymphoma; KM‐H2, Hodgkin lymphoma) (Table 3). In this case, a different behaviour was observed.
(§1) To test the newly synthesized compounds, various human cell lines were employed. HD‐MB03 cells were purchased from DSMZ (Braunschweig, Germany), while A549, MDA‐MB‐231, RPMI‐8420, SU‐DHL‐8, TOLEDO, VL51, SU‐DHL‐1, SU‐DHL‐18, and KM‐H2 were obtained from ATCC (Manassas, VA, USA). Cells were cultured in DMEM (for MDA‐MB‐231 and A549) or RPMI‐1640 (for RPMI‐8420, SU‐DHL‐8, TOLEDO, VL51, SU‐DHL‐1, SU‐DHL‐18, KM‐H2, and HD‐MB03) media (Gibco, Milan, Italy). Both media were supplemented with 115 units/mL penicillin G (Gibco, Milan, Italy), 115 µg/mL streptomycin (Invitrogen, Milan, Italy), and 10% fetal bovine serum (Invitrogen, Milan, Italy). Peripheral blood mononuclear cells (PBMCs) were isolated from healthy donors as previously described. For cytotoxicity assays, PBMCs were resuspended at 5 × 10⁵ cells/mL in complete RPMI medium with or without 2.5 µg/mL phytohemagglutinin (PHA) (Irvine Scientific) to stimulate T‐cell activation and proliferation. All cell lines were maintained at 37°C in a humidified atmosphere containing 5% CO₂. All compounds were dissolved in DMSO at a 10 mM stock concentration. For dose–response assays, cells were seeded in 96‐well plates at densities optimized for each cell line: HD‐MB03 at 10,000 cells/well, A549 at 4000 cells/well, and MDA‐MB‐231 at 7000 cells/well. All other cell lines were seeded at 20,000 cells/well in a final volume of 100 µL per well. After 24 h, cells were treated with a 6‐point serial dilution of compounds starting from 10 µM, in triplicate for statistical analysis. Seventy‐2 h posttreatment, 10 µL of resazurin solution (100 µg/mL) was added to each well, and cells were incubated for an additional 3–6 h. Fluorescence was measured using a Spark 10 M microplate reader (Tecan Group Ltd., Männedorf, Switzerland) with excitation at 535 nm and emission at 600 nm. The IC₅₀ was defined as the concentration of compound required to inhibit cell proliferation by 50% compared to cells treated with the highest DMSO concentration.

[2] = tested on: peripheral blood mononuclear cells (PBMCs); experiment: Antiproliferative/cytotoxicity assay on PBMCs from a healthy donor; format: cell-based; conditions: Homo sapiens, PBMC
Procedure: To assess the potential toxicity of the most promising quinoline derivatives 4i, 4n, 4s, and 4ah, an antiproliferative assay was performed, using peripheral blood mononuclear cells (PBMCs) isolated from a healthy donor.
as §1
To test the newly synthesized compounds, various human cell lines were employed. HD-MB03 cells were purchased from DSMZ (Braunschweig, Germany), while A549, MDA-MB-231, RPMI-8420, SU-DHL-8, TOLEDO, VL51, SU-DHL-1, SU-DHL-18, and KM-H2 were obtained from ATCC (Manassas, VA, USA). Cells were cultured in DMEM (for MDA-MB-231 and A549) or RPMI-1640 (for RPMI-8420, SU-DHL-8, TOLEDO, VL51, SU-DHL-1, SU-DHL-18, KM-H2, and HD-MB03) media (Gibco, Milan, Italy). Both media were supplemented with 115 units/mL penicillin G (Gibco, Milan, Italy), 115 µg/mL streptomycin (Invitrogen, Milan, Italy), and 10% fetal bovine serum (Invitrogen, Milan, Italy). Peripheral blood mononuclear cells (PBMCs) were isolated from healthy donors as previously described. ^[1] For cytotoxicity assays, PBMCs were resuspended at 5 × 10⁵ cells/mL in complete RPMI medium with or without 2.5 µg/mL phytohemagglutinin (PHA) (Irvine Scientific) to stimulate T cell activation and proliferation. All cell lines were maintained at 37 °C in a humidified atmosphere containing 5% CO₂. All compounds were dissolved in DMSO at a 10 mM stock concentration. For dose–response assays, cells were seeded in 96-well plates at densities optimized for each cell line: HD-MB03 at 10,000 cells/well, A549 at 4,000 cells/well, and MDA-MB-231 at 7,000 cells/well. All other cell lines were seeded at 20,000 cells/well in a final volume of 100 µL per well. After 24 hours, cells were treated with a 6-point serial dilution of compounds starting from 10 µM, in triplicate for statistical analysis. Seventy-two hours post-treatment, 10 µL of resazurin solution (100 µg/mL) was added to each well, and cells were incubated for an additional 3–6 hours. […]

[3] = PBMCs stimulated with 2.5 µg/mL PHA, read-out: IC50 phytohemagglutinin-stimulated PBMCs
[4] = resting PBMCs from a healthy donor, read-out: IC50 resting PBMCs

pIC50 [1]	IC50 values, range over lymphoma cell lines [1]	Structure (SMILES)	pIC50 [2, 3]	pIC50 [2, 4]
5.17 to 5.42		O=C(Nc1ccc(Cl)cc1)c1cc(/C=C/c2ccccc2[N+](=O)[O-])nc2ccccc12 [4ah, (E)-N-(4-chlorophenyl)-2-(2-nitrostyryl)quinoline-4-carboxamide]	< 5.00	< 5.00
5.12 to 5.99		O=C(Nc1ccc([N+](=O)[O-])cc1)c1cc(/C=C/c2ccccc2)nc2ccccc12 [4i, (E)-N-(4-nitrophenyl)-2-styrylquinoline-4-carboxamide]	< 5.00	< 5.00
	devoid of antiproliferative activity	COc1cc(/C=C/c2cc(C(=O)Nc3c(C)cccc3C)c3ccccc3n2)cc(OC)c1OC [4n, (E)-N-(2,6-dimethylphenyl)-2-(3,4,5-trimethoxystyryl)quinoline-4-carboxamide]	< 5.00	< 5.00
	devoid of antiproliferative activity	COc1cc(/C=C/c2cc(C(=O)Nc3ccc([N+](=O)[O-])cc3)c3ccccc3n2)cc(OC)c1OC [4s, (E)-N-(4-nitrophenyl)-2-(3,4,5-trimethoxystyryl)quinoline-4-carboxamide]	< 5.00	< 5.00
